Measurements taken from the CheMixHub viscosity set.

Assay: xn = mol fraction of the nth substance listed

C[Si]1(C)O[Si](C)(C)O[Si](C)(C)O[Si](C)(C)O1 + CCCCCCCCCCCCC
viscosity [mPa·s], 103 kPa
Conditions	298.15 K	308.15 K	318.15 K
x1 = 0.05	1.619	1.351	1.145
x1 = 0.1	1.61	1.343	1.139
x1 = 0.15	1.604	1.339	1.137
x1 = 0.2	1.602	1.338	1.134
x1 = 0.2501	1.604	1.346	1.136
x1 = 0.3	1.608	1.342	1.139
x1 = 0.35	1.614	1.345	1.143
x1 = 0.4	1.62	1.355	1.149
x1 = 0.45	1.636	1.366	1.159
x1 = 0.5	1.649	1.375	1.167
x1 = 0.55	1.667	1.389	1.177
x1 = 0.6	1.69	1.406	1.191
x1 = 0.65	1.715	1.43	1.209
x1 = 0.7	1.751	1.458	1.24
x1 = 0.75	1.794	1.498	1.269
x1 = 0.8	1.826	1.53	1.293
x1 = 0.85	1.89	1.572	1.328
x1 = 0.9	1.941	1.62	1.365
x1 = 0.95	1.996	1.659	1.405

C[Si]1(C)O[Si](C)(C)O[Si](C)(C)O[Si](C)(C)O1 + CCCCCCCCCCCCCC
viscosity [mPa·s], 103 kPa
Conditions	298.15 K	308.15 K	318.15 K
x1 = 0.05	1.944	1.605	1.347
x1 = 0.1	1.905	1.579	1.327
x1 = 0.15	1.881	1.56	1.312
x1 = 0.2	1.859	1.536	1.293
x1 = 0.25	1.853	1.523	1.282
x1 = 0.3	1.843	1.527	1.287
x1 = 0.35	1.833	1.52	1.281
x1 = 0.4	1.831	1.518	1.278
x1 = 0.45	1.82	1.509	1.274
x1 = 0.5	1.815	1.507	1.273
x1 = 0.55	1.817	1.51	1.275
x1 = 0.6	1.824	1.515	1.279
x1 = 0.65	1.831	1.522	1.285
x1 = 0.7	1.844	1.533	1.294
x1 = 0.7498	1.861	1.548	1.307
x1 = 0.8	1.887	1.571	1.324
x1 = 0.85	1.922	1.6	1.349
x1 = 0.8999	1.965	1.632	1.376
x1 = 0.95	2.014	1.672	1.406

CCNc1ccccc1 + CCCCCCCCCCO
viscosity [mPa·s], 101 kPa
Conditions	303.15 K	308.15 K	313.15 K
x1 = 0.0817	7.725	7.287	6.857
x1 = 0.1745	6.632	6.215	5.818
x1 = 0.2651	5.714	5.323	4.959
x1 = 0.3524	4.951	4.585	4.253
x1 = 0.4321	4.345	4.002	3.697
x1 = 0.5012	3.88	3.557	3.274
x1 = 0.5685	3.476	3.173	2.909
x1 = 0.6325	3.131	2.845	2.6
x1 = 0.6958	2.825	2.556	2.327
x1 = 0.7521	2.579	2.324	2.109
x1 = 0.8012	2.382	2.14	1.937
x1 = 0.8562	2.18	1.952	1.762
x1 = 0.9021	2.027	1.81	1.63

CCNc1ccccc1 + CCCCCCCCO
viscosity [mPa·s], 101 kPa
Conditions	303.15 K	308.15 K	313.15 K
x1 = 0.0802	5.589	4.869	3.822
x1 = 0.1625	5.024	4.381	3.478
x1 = 0.2541	4.463	3.898	3.134
x1 = 0.3514	3.937	3.445	2.808
x1 = 0.4421	3.504	3.071	2.537
x1 = 0.5012	3.248	2.851	2.375
x1 = 0.5741	2.96	2.601	2.19
x1 = 0.6214	2.787	2.451	2.078
x1 = 0.6952	2.538	2.235	1.915
x1 = 0.7412	2.395	2.112	1.822
x1 = 0.7954	2.238	1.975	1.717
x1 = 0.8412	2.114	1.867	1.635
x1 = 0.8921	1.984	1.756	1.549

CCNc1ccccc1 + CCCCCCCO
viscosity [mPa·s], 101 kPa
Conditions	303.15 K	308.15 K	313.15 K
x1 = 0.0812	4.393	4.271	4.154
x1 = 0.1589	4.051	3.907	3.774
x1 = 0.2456	3.705	3.541	3.394
x1 = 0.3612	3.288	3.108	2.948
x1 = 0.4304	3.063	2.875	2.711
x1 = 0.5023	2.847	2.653	2.486
x1 = 0.5744	2.646	2.449	2.278
x1 = 0.6415	2.474	2.273	2.103
x1 = 0.7125	2.304	2.102	1.932
x1 = 0.7754	2.166	1.963	1.794
x1 = 0.8214	2.071	1.867	1.7
x1 = 0.8741	1.966	1.765	1.6
x1 = 0.9214	1.878	1.678	1.516

COCC(C)OCC(C)OC (stereo unspecified) + CCCCCCCO
Conditions	viscosity [mPa·s]
298.15 K, 101 kPa, x1 = 0.4532	1.895

ClCCCl + CCCCCCCO
303.15 K, 101 kPa
Conditions	viscosity [mPa·s]
x2 = 0.1082	0.852
x2 = 0.1749	0.918
x2 = 0.3034	1.082
x2 = 0.456	1.415
x2 = 0.5496	1.752
x2 = 0.622	2.078
x2 = 0.7978	3.174
x2 = 0.8642	3.699
x2 = 0.9346	4.286
